Legend:
Type in all cases: cell-based
E. coli [1] = test: E. coli content of digested sludge cake (24.8% solids) treated with urea; conditions: digested sewage sludge 24.8% solids
Description: Samples of digested sludge cake with mean solids content of 24.8% were treated with various amounts of urea. The E. coli content (cfu/g dry weight) of the samples was monitored over a period.

pathogens in the cake = test: Pathogen deactivation in sewage sludge cake (general statement); conditions: low concentration added to sewage sludge cake, particularly septic cake
E. coli [2] = test: E. coli content of raw sewage sludge cake (25.6% DS) treated with urea; conditions: raw sewage sludge 25.6% DS
Description: Samples of raw sewage sludge cake with mean solids content of 25.6% were treated with various amounts of urea. The E. coli content (cfu/g dry weight) of the samples was monitored over a period.

NC(N)=O [urea]
E. coli content (E. coli [1]; 0.5% dose urea, day 0): 4.67E+04 cfu/g dry weight
E. coli content (E. coli [1]; 0.5% dose urea, day 1): 1.86E+03 cfu/g dry weight
E. coli content (E. coli [1]; 0.5% dose urea, day 4): 1.21E+02 cfu/g dry weight
E. coli content (E. coli [1]; 0.5% dose urea, day 7): 1.94E+02 cfu/g dry weight
E. coli content (E. coli [1]; 0.5% dose urea, day 14): 3.90E+01 cfu/g dry weight
E. coli content (E. coli [1]; 0.5% dose urea, day 50): 5.40E+01 cfu/g dry weight
E. coli content (E. coli [1]; 1.0% dose urea, day 0): 1.79E+04 cfu/g dry weight
E. coli content (E. coli [1]; 1.0% dose urea, day 1): 6.97E+03 cfu/g dry weight
E. coli content (E. coli [1]; 1.0% dose urea, day 4): 7.90E+01 cfu/g dry weight
E. coli content (E. coli [1]; 1.0% dose urea, day 7): 7.90E+01 cfu/g dry weight
E. coli content (E. coli [1]; 1.0% dose urea, day 14): 1.34E+02 cfu/g dry weight
E. coli content (E. coli [1]; 1.0% dose urea, day 50): 1.85E+02 cfu/g dry weight
E. coli content (E. coli [1]; 1.5% dose urea, day 0): 1.19E+04 cfu/g dry weight
E. coli content (E. coli [1]; 1.5% dose urea, day 1): 4.57E+03 cfu/g dry weight
E. coli content (E. coli [1]; 1.5% dose urea, day 4): 3.70E+01 cfu/g dry weight
E. coli content (E. coli [1]; 1.5% dose urea, day 7): 1.54E+02 cfu/g dry weight
E. coli content (E. coli [1]; 1.5% dose urea, day 14): 7.90E+01 cfu/g dry weight
E. coli content (E. coli [1]; 1.5% dose urea, day 50): 4.10E+01 cfu/g dry weight
Pathogens in the cake (pathogens in the cake): quickly become deactivated
E. coli content (E. coli [2]; 0.5% dose urea, day 0): 1.36E+06 cfu/g dry weight
E. coli content (E. coli [2]; 0.5% dose urea, day 1): 7.58E+06 cfu/g dry weight
E. coli content (E. coli [2]; 0.5% dose urea, day 8): 1.32E+05 cfu/g dry weight
E. coli content (E. coli [2]; 0.5% dose urea, day 14): 1.18E+05 cfu/g dry weight
E. coli content (E. coli [2]; 0.5% dose urea, day 22): 4.55E+04 cfu/g dry weight
E. coli content (E. coli [2]; 1.0% dose urea, day 0): 1.39E+06 cfu/g dry weight
E. coli content (E. coli [2]; 1.0% dose urea, day 1): 6.15E+06 cfu/g dry weight
E. coli content (E. coli [2]; 1.0% dose urea, day 8): 3.25E+03 cfu/g dry weight
E. coli content (E. coli [2]; 1.0% dose urea, day 14): 9.58E+02 cfu/g dry weight
E. coli content (E. coli [2]; 1.0% dose urea, day 22): 3.35E+02 cfu/g dry weight
E. coli content (E. coli [2]; 1.5% dose urea, day 0): 1.23E+06 cfu/g dry weight
E. coli content (E. coli [2]; 1.5% dose urea, day 1): 1.30E+03 cfu/g dry weight
E. coli content (E. coli [2]; 1.5% dose urea, day 8): 9.03E+02 cfu/g dry weight
E. coli content (E. coli [2]; 1.5% dose urea, day 14): 2.09E+02 cfu/g dry weight
E. coli content (E. coli [2]; 1.5% dose urea, day 22): 1.00E+01 cfu/g dry weight

— patent US7504035B2, “Treatment of putrescrible cakes” (United Utilities PLC, priority 2005, dated 2009)
